Measured values from patent US20100317578A1, “METHOD OF PROTECTING AGAINST STROKE THROUGH THE USE OF A DELTA OPIOID PEPTIDE” (priority 2009, published 2010).

How the values were obtained:
Assay type in all cases: in vivo, Sprague-Dawley rats
caspase-3 = assay: Immunohistochemistry of apoptosis markers, caspase-3; settings: ischemic striatum, 72 hours after MCAor
Procedure: (§1) In order to further characterize the effects of DADLE on apoptotic cell death, 20 animals were subjected to the same procedures as above, and the treatment effects of DADLE (n=10) against saline vehicle alone (n=10) were compared. Rats were euthanized at 72 hours after MCAor surgery. The rats were perfused transcardially with 200 ml of cold phosphate-buffered saline (PBS) and 200 ml of 4% paraformaldehyde in PBS. Brains were removed and post-fixed in the same fixative overnight at 4° C. with the subsequent replacement with 30% sucrose in PBS for 72 hours. The brains were coronally sectioned at the thickness of 8 μm. Sections were washed 3 times for 5 minutes in PBS. Sections were then incubated overnight at 4° C. with caspase-3 (Abeam, 1:500) or Fas (Santa Cruz Biotechnology, 1:100) primary antibody and washed 3 times in PBS. […]
(§2) For morphological analyses, immunoreactive cells in the striatum within the ipsilateral to the stroke hemisphere were examined using a Zeiss LSM510 confocal microscope (Oberkochen, Germany). Specifically, 6 coronal sections at every 300 μm that approximately captured the ischemic striatum (AP −2.0 to +2.0 mm from the bregma) were examined from each rat and the number of positive cells was counted in each 6 high power fields and the averages were used for the statistical analyses. […]

[1] = tested on: nerve growth factor (NGF); assay: ELISA assay of NGF in brain tissues; settings: striatal and cortical tissues, p>0.05
Procedure: (§3) To examine possible non-opioid effects of DADLE, assays of expression of neurotrophic factors (glial cell line-derived neurotrophic factor (GDNF) and nerve growth factor (NGF)) that have been previously shown to be protective against ischemia were performed. Enzyme-linked immunosorbent assay (ELISA) was conducted on ischemic animals injected either with DADLE or saline (n=6 per group). Following the same drug dosing regimen mentioned above, animals were rapidly decapitated, their brains removed and striatal and frontal cortical tissues quickly dissected. Brain homogenization and supernatant acidification were performed using methods as described in Okragly et al., Exp Neurol 1997, 145:592-596 [37] with minor modifications. Protein concentrations were measured by using the BCA Kit (Pierse, Rockford, Ill. USA). For the measurement of GDNF, mouse monoclonal anti-GDNF antibody (R & D Systems, Inc., Minnesota, USA) was used as a capture antibody and biotinylated goat anti-GDNF antibody (R & D Systems, Inc., Minnesota, USA) was used as a detection antibody. For the measurement of NGF, the NGF Emax TM ImmunoAssay system (Promega Cooperation, Madison, Wis., USA) was used. The THERMOmax 96-well microplate reader (Molecular Devices Corp., Sunnyvale, Calif. USA) was used to measure the optical densities.

[2] = tested on: cerebral infarction in the striatum after MCAor; assay: Cerebral infarction assay (TTC staining)
[3] = tested on: glial cell line-derived neurotrophic factor (GDNF); assay: ELISA assay of GDNF in brain tissues; settings: striatal and cortical tissues, p<0.05
Procedure: as §3

[4] = tested on: ischemia-induced asymmetrical motor deficits (MCAor); assay: Battery of behavioral tests after MCAor surgery
p53 mRNA = assay: Determination of p53 mRNA expression (northern blot); settings: 24 hr post-MCAor
Procedure: To examine whether DADLE altered programmed cell death or apoptosis, which has been postulated to mediate ischemia-induced cell injury, the mRNA expression of the apoptotic marker p53 were assayed. At 24 hr and 72 hr after MCAor surgery, randomly selected animals that received either DADLE alone or saline alone were euthanized by rapid decapitation. The striatum was dissected and quickly frozen using dry ice then stored in −80° C. freezer until tissue processing was conducted. Total RNA extraction, northern blot analysis and hybridization were conducted using standard methods as described in Chomczynski et al., Anal Biochem 1987, 162:156-159 and Mattson, Brain Res 2000, 886:47-53 [34,35]. Analyses of resulting bands were quantified using a Macintosh computer-based image analysis system (Image, NIH). Densitometrically determined intensities of p-53 mRNA was normalized to 18S rRNA.

Fas = assay: Immunohistochemistry of apoptosis markers, Fas; settings: ischemic striatum, 72 hours after MCAor
Procedure: as §1, §2

[5] = tested on: ischemia-induced postural bias (MCAor); assay: Postural bias (tail-hang) test; settings: scale 0-3; pooled mean of ischemic animals pretreated with saline, naltrexone alone or naloxone methiodide alone
Procedure: (§4) The spontaneous rotational test was performed immediately after the animal's recovery from anesthesia following insertion of the embolus. The animal was placed in a chamber made of transparent Plexiglas (40×40×35.5 cm) and the direction of the animal's rotation was noted over two 5-minute sessions. Two full turns (tight ipsiversive rotations) per minute was considered indicative of a brain insult. For the postural bias test and forelimb akinesia test, a semiquantitative scale was used as described in Bederson et al., Stroke 1986, 17:472-476 [33].
The postural tail-hang test involved holding the animal by the tail (similar to the EBST) and noting the positions of the forelimbs. A scale is used for grading the ischemic injury-induced dysfunctions as follows: 0, rats extend straight both forelimbs, no observable deficit; 1, rats keep the left forelimb to the breast and extend straight the right forelimb; 2, rats show decreased resistance to lateral push in addition to behavior in score 1 without circling; 3, rats twist the upper half of their body in addition to behavior in score 2.
Finally, the forelimb akinesia test involved pulling each forelimb at 90 degrees away from the body median axis. The return of the forelimb towards the midline was scored as 0 for slow movement with rigidity, 1 for slow movement, and 2 for smooth rapid movement. […]

[6] = tested on: ischemia-induced spontaneous rotational behavior (MCAor); assay: Spontaneous rotational test; settings: pooled mean of ischemic animals pretreated with saline, naltrexone alone or naloxone methiodide alone
Procedure: (§5) After recovery from anesthesia, animals were evaluated on a battery of tests including spontaneous rotational test, elevated body swing test (EBST), postural bias test and forelimb akinesia test.
as §4

[7] = tested on: ischemia-induced biased swing activity (MCAor); assay: Elevated body swing test (EBST); settings: pooled mean of ischemic animals pretreated with saline, naltrexone alone or naloxone methiodide alone
Procedure: as §5
The EBST is described in detail in Borlongan et al., Exp Neurol 1998, 149:310-321[17], and has been utilized to characterize the biased swing activity of ischemic animals starting at one month post-ischemia and extending up to three months post-surgery. The animal was lifted 20 times by its tail and the direction of the swing was recorded.

[8] = tested on: ischemia-induced forelimb akinesia (MCAor); assay: Forelimb akinesia test; settings: scale 0-2; pooled mean of ischemic animals pretreated with saline, naltrexone alone or naloxone methiodide alone
Procedure: The spontaneous rotational test [32] was performed immediately after the animal's recovery from anesthesia following insertion of the embolus. The animal was placed in a chamber made of transparent Plexiglas (40×40×35.5 cm) and the direction of the animal's rotation was noted over two 5-minute sessions. Two full turns (tight ipsiversive rotations) per minute was considered indicative of a brain insult [17,32].
Finally, the forelimb akinesia test involved pulling each forelimb at 90 degrees away from the body median axis. The return of the forelimb towards the midline was scored as 0 for slow movement with rigidity, 1 for slow movement, and 2 for smooth rapid movement. A score of 1 in the scale for postural bias test or forelimb akinesia test was considered as indicative of CNS dysfunction [17].

Row | SMILES | caspase-3-positive cells compared to vehicle-treated ischemic animals (caspase-3) | levels of NGF compared to saline-treated ischemic animals [1] | mean volume of infarcted striatal tissue ([2]; rat, in vivo) | levels of GDNF compared to saline-treated ischemic animals [3] | behavior in EBST, spontaneous rotational test, postural bias test and forelimb akinesia test ([4]; rat, in vivo) | increment in p-53 mRNA expression in ischemic striatum compared to intact striatum of control, normal animals (p53 mRNA; normalized to 18S rRNA, vehicle 65% increment, not significant vs control (p>0.05)) [%] | p-53 mRNA expression in ischemic striatum compared to vehicle-treated ischemic animals (p53 mRNA; only a trend, p=0.07) | Fas-positive cells compared to vehicle-treated ischemic animals (Fas) | mean postural bias score [5] | mean ipsiversive rotations per minute [6] [rotations per minute] | mean percentage biased swing response [7] | behavior in EBST, spontaneous rotational test, postural bias test and forelimb akinesia test ([4]; ischemic rats, pretreatment i.p. before MCAor, throughout the post-MCAor test period (day 0 to 3)) | mean volume of infarcted striatal tissue ([2]; TTC staining at 24 or 72 hr after reperfusion, saline 81.2±5.3 mm^3) [mm^3] | mean akinesia score [8]
1 | CC(C)C[C@@H](NC(=O)[C@H](Cc1ccccc1)NC(=O)CNC(=O)[C@@H](C)NC(=O)[C@@H](N)Cc1ccc(O)cc1)C(=O)O [DADLE, [D-Ala^2,D-Leu^5]enkephalin] | significant reductions | did not differ | no detectable infarction | significantly higher | near-normal behaviors | 28 | marked reduction | significant reductions | – | – | – | – | – | –
2 | O=C1CC[C@@]2(O)[C@H]3Cc4ccc(O)c5c4[C@@]2(CCN3CC2CC2)[C@H]1O5 [naltrexone] | – | – | – | – | – | – | – | – | 2.25±0.31 | 2.52±0.56 | 82.8%±12.3 | significant abnormalities | – | –
3 | C=CC[N+]1(C)CC[C@]23c4c5ccc(O)c4O[C@H]2C(=O)CC[C@@]3(O)[C@H]1C5 (stereo partly drawn) [naloxone methiodide] | – | – | – | – | significant abnormalities | – | – | – | 2.25±0.31 | 2.52±0.56 | 82.8%±12.3 | – | 78.7±7.4 | 1.17±0.15
